Patent US12448395B2 (BRISTOL-MYERS SQUIBB COMPANY, priority 2019, dated 2025)

biological target: T1, human TLR9 (Homo sapiens, UniProt Q9NR96); assay: TLR9 inhibition reporter assay (HEK-Blue SEAP, ODN2006 stimulation); format: cell-based; conditions: HEK-Blue cells overexpressing human TLR9, ODN2006 5 nM
T1 sequence (Q9NR96 26-1032): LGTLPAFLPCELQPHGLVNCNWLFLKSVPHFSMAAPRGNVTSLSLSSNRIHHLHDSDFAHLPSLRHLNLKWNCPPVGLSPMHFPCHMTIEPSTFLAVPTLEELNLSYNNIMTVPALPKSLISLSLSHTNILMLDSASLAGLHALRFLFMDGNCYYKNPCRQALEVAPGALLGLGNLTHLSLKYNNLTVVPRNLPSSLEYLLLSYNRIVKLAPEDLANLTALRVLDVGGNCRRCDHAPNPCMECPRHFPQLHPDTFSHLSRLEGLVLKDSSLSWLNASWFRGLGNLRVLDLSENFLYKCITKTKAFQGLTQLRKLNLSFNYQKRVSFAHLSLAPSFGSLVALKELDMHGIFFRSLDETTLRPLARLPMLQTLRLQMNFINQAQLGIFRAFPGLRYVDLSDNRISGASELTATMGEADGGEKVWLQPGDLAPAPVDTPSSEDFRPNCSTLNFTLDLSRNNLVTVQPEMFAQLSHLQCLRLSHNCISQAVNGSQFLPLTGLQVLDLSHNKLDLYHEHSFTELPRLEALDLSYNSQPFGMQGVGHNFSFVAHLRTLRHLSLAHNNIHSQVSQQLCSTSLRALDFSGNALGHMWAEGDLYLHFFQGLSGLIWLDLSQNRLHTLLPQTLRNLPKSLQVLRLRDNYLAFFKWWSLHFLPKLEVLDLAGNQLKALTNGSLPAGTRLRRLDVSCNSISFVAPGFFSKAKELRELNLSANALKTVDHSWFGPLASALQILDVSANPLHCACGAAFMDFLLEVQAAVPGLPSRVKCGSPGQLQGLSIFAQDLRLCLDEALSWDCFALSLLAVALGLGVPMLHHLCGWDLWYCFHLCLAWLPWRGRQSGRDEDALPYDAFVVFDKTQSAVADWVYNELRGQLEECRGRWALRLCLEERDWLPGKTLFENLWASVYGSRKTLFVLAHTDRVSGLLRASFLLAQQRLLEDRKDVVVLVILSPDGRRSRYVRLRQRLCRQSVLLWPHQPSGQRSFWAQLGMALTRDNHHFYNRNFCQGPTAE
Experimental: TLR7/8/9 Inhibition Reporter Assays
HEK-Blue™-cells (Invivogen) overexpressing human TLR7, TLR8 or TLR9 receptors were used for screening inhibitors of these receptors using an inducible SEAP (secreted embryonic alkaline phosphatase) reporter gene under the control of the IFN-β minimal promoter fused to five NF-κB and AP-1-binding sites. Briefly, cells are seeded into Greiner 384 well plates (15000 cells per well for TLR7, 20,000 for TLR8 and 25,000 for TLR9) and then treated with test compounds in DMSO to yield a final dose response concentration range of 0.05 nM-50 μM. After a 30 minute compound pre-treatment at room temperature, the cells are then stimulated with a TLR7 ligand (gardiquimod at a final concentration of 7.5 μM), TLR8 ligand (R848 at a final concentration of 15.9 μM) or TLR9 ligand (ODN2006 at a final concentration of 5 nM) to activate NF-κB and AP-1 which induce the production of SEAP. After a 22 hour incubation at 37° C., 5% CO2, SEAP levels are determined with the addition of HEK-Blue™ Detection reagent (Invivogen), a cell culture medium that allows for detection of SEAP, according to manufacturer's specifications. The percent inhibition is determined as the % reduction in the HEK-Blue signal present in wells treated with agonist plus DMSO alone compared to wells treated with a known inhibitor.

IC50, > 50 µM:
Cc1c(-c2[nH]c3sc(N4CCN(CC(N)=O)C[C@H]4C)nc3c2C(C)C)cn2ncnc2c1C [Example 313, (R)-2-(4-(5-(7,8-dimethyl-[1,2,4]triazolo[1,5-a]pyridin-6-yl)-6-isopropyl-4H-pyrrolo[3,2-d]thiazol-2-yl)-3-methylpiperazin-1-yl)acetamide]
Cc1c(-c2[nH]c3sc(N4CCN(CCS(C)(=O)=O)C[C@H]4C)nc3c2C(C)C)cn2ncnc2c1C [Example 314, (R)-5-(7,8-dimethyl-[1,2,4]triazolo[1,5-a]pyridin-6-yl)-6-isopropyl-2-(2-methyl-4-(2-(methylsulfonyl)ethyl)piperazin-1-yl)-4H-pyrrolo[3,2-d]thiazole]
CNC(=O)CN1CCN(c2nc3c(C(C)C)c(-c4cn5ncnc5c(C)c4C)[nH]c3s2)[C@H](C)C1 [Example 315, (R)-2-(4-(5-(7,8-dimethyl-[1,2,4]triazolo[1,5-a]pyridin-6-yl)-6-isopropyl-4H-pyrrolo[3,2-d]thiazol-2-yl)-3-methylpiperazin-1-yl)-N-methylacetamide]
Cc1c(-c2[nH]c3sc(N4CCN(C5COC5)C[C@H]4C)nc3c2C(C)C)cn2ncnc2c1C [Example 316, (R)-5-(7,8-dimethyl-[1,2,4]triazolo[1,5-a]pyridin-6-yl)-6-isopropyl-2-(2-methyl-4-(oxetan-3-yl)piperazin-1-yl)-4H-pyrrolo[3,2-d]thiazole]
Cc1c(-c2[nH]c3sc(N4C[C@@H](C)N(CC(=O)N(C)C)C[C@@H]4C)nc3c2C(C)C)cn2ncnc2c1C [Example 335, 2-((2R,5S)-4-(5-(7,8-dimethyl-[1,2,4]triazolo[1,5-a]pyridin-6-yl)-6-isopropyl-4H-pyrrolo[3,2-d]thiazol-2-yl)-2,5-dimethylpiperazin-1-yl)-N,N-dimethylacetamide]
CNC(=O)CN1CCN(c2nc3c(C(C)C)c(-c4cn5ncnc5c(C)c4C)[nH]c3s2)[C@@H](C)C1 [Example 342, (S)-2-(4-(5-(7,8-dimethyl-[1,2,4]triazolo[1,5-a]pyridin-6-yl)-6-isopropyl-4H-pyrrolo[3,2-d]thiazol-2-yl)-3-methylpiperazin-1-yl)-N-methylacetamide]
Cc1c(-c2[nH]c3sc(N4CCN(CC(=O)N(C)C)C[C@@H]4C)nc3c2C(C)C)cn2ncnc2c1C [Example 343, (S)-2-(4-(5-(7,8-dimethyl-[1,2,4]triazolo[1,5-a]pyridin-6-yl)-6-isopropyl-4H-pyrrolo[3,2-d]thiazol-2-yl)-3-methylpiperazin-1-yl)-N,N-dimethylacetamide]
Cc1c(-c2[nH]c3sc(N4CCN(CCS(C)(=O)=O)C[C@@H]4C)nc3c2C(C)C)cn2ncnc2c1C [Example 344, (S)-5-(7,8-dimethyl-[1,2,4]triazolo[1,5-a]pyridin-6-yl)-6-isopropyl-2-(2-methyl-4-(2-(methylsulfonyl)ethyl)piperazin-1-yl)-4H-pyrrolo[3,2-d]thiazole]
Cc1c(-c2[nH]c3sc(N4CCN(CC(C)(C)O)C[C@@H]4C)nc3c2C(C)C)cn2ncnc2c1C [Example 345, (S)-1-(4-(5-(7,8-dimethyl-[1,2,4]triazolo[1,5-a]pyridin-6-yl)-6-isopropyl-4H-pyrrolo[3,2-d]thiazol-2-yl)-3-methylpiperazin-1-yl)-2-methylpropan-2-ol]
Cc1c(-c2[nH]c3sc(N4CCN(C(=O)C5CCS(=O)(=O)CC5)C[C@@H]4C)nc3c2C(C)C)cn2ncnc2c1C [Example 347, (S)-(4-(5-(7,8-dimethyl-[1,2,4]triazolo[1,5-a]pyridin-6-yl)-6-isopropyl-4H-pyrrolo[3,2-d]thiazol-2-yl)-3-methylpiperazin-1-yl)(1,1-dioxidotetrahydro-2H-thiopyran-4-yl)methanone]
Cc1c(-c2[nH]c3sc(N4CCN(C5COC5)C[C@@H]4C)nc3c2C(C)C)cn2ncnc2c1C [Example 348, (S)-5-(7,8-dimethyl-[1,2,4]triazolo[1,5-a]pyridin-6-yl)-6-isopropyl-2-(2-methyl-4-(oxetan-3-yl)piperazin-1-yl)-4H-pyrrolo[3,2-d]thiazole]
Cc1c(-c2[nH]c3sc(N4CCN(C5CCC5)C[C@@H]4C)nc3c2C(C)C)cn2ncnc2c1C [Example 349]
Cc1cc(-c2[nH]c3sc(N4CCN(C(=O)CN(C)C)C[C@H]4C)nc3c2C(C)C)cn2ncnc12 [Example 360, (R)-2-(dimethylamino)-1-(4-(6-isopropyl-5-(8-methyl-[1,2,4]triazolo[1,5-a]pyridin-6-yl)-4H-pyrrolo[3,2-d]thiazol-2-yl)-3-methylpiperazin-1-yl)ethan-1-one]
Cc1c(-c2[nH]c3sc(C(=O)NCCCN4CCCC4=O)nc3c2C(C)C)cn2ncnc2c1C [Example 371, 5-(7,8-dimethyl-[1,2,4]triazolo[1,5-a]pyridin-6-yl)-6-isopropyl-N-(3-(2-oxopyrrolidin-1-yl)propyl)-4H-pyrrolo[3,2-d]thiazole-2-carboxamide]
Cc1c(-c2[nH]c3sc(C(=O)N4CCCC4)nc3c2C(C)C)cn2ncnc2c1C [Example 377, (5-(7,8-dimethyl-[1,2,4]triazolo[1,5-a]pyridin-6-yl)-6-isopropyl-4H-pyrrolo[3,2-d]thiazol-2-yl)(pyrrolidin-1-yl)methanone]
Cc1c(-c2[nH]c3sc(C(=O)N4CCNC(=O)C4)nc3c2C(C)C)cn2ncnc2c1C [Example 378, 4-(5-(7,8-dimethyl-[1,2,4]triazolo[1,5-a]pyridin-6-yl)-6-isopropyl-4H-pyrrolo[3,2-d]thiazole-2-carbonyl)piperazin-2-one]
Cc1c(-c2[nH]c3sc(C(=O)N4CCN(S(C)(=O)=O)CC4)nc3c2C(C)C)cn2ncnc2c1C [Example 384, (5-(7,8-dimethyl-[1,2,4]triazolo[1,5-a]pyridin-6-yl)-6-isopropyl-4H-pyrrolo[3,2-d]thiazol-2-yl)(4-(methylsulfonyl)piperazin-1-yl) methanone]
Cc1c(-c2[nH]c3sc(C(N)=O)nc3c2C(C)C)cn2ncnc2c1C [Example 385, 5-(7,8-dimethyl-[1,2,4]triazolo[1,5-a]pyridin-6-yl)-6-isopropyl-4H-pyrrolo[3,2-d]thiazole-2-carboxamide]
COc1cc(-c2[nH]c3sc(C(=O)NCC(F)(F)F)nc3c2C(C)C)cn2ncnc12 [Example 390, 6-isopropyl-5-(8-methoxy-[1,2,4]triazolo[1,5-a]pyridin-6-yl)-N-(2,2,2-trifluoroethyl)-4H-pyrrolo[3,2-d]thiazole-2-carboxamide]
Cc1cc(-c2[nH]c3sc(C(N)=O)nc3c2C(C)C)cn2ncnc12 [Example 391, 6-isopropyl-5-(8-methyl-[1,2,4]triazolo[1,5-a]pyridin-6-yl)-4H-pyrrolo[3,2-d]thiazole-2-carboxamide]
Cc1cc(-c2[nH]c3sc(C(=O)N4CCNC(=O)C4)nc3c2C(C)C)cn2ncnc12 [Example 392, 4-(6-isopropyl-5-(8-methyl-[1,2,4]triazolo[1,5-a]pyridin-6-yl)-4H-pyrrolo[3,2-d]thiazole-2-carbonyl)piperazin-2-one]
Cc1cc(-c2[nH]c3sc(C(=O)N4CCCC4)nc3c2C(C)C)cn2ncnc12 [Example 393, (6-isopropyl-5-(8-methyl-[1,2,4]triazolo[1,5-a]pyridin-6-yl)-4H-pyrrolo[3,2-d]thiazol-2-yl)(pyrrolidin-1-yl) methanone]
